From PMC9080333 (RSC Advances, 2018)
≈ marks a conversion by molar mass, not a printed value.

Key:
RAW 264.7 cells = conditions: RAW 264.7 cell line, MTT assay, 50 μg mL^−1, 48 h incubation
[1] = tested on: Mycobacterium tuberculosis H37Rv; assay: In vitro MTB Microplate Alamar Blue Assay; format: cell-based
[2] = Mycobacterium tuberculosis, H37RV, M. tuberculosis H37Rv, MABA, average of duplicates
[3] = against MTB, in vitro (conclusion)
[4] = Mycobacterium tuberculosis, H37RV, 168 h, M. tuberculosis H37Rv, MABA, average of duplicates
[5] = M. tuberculosis H37Rv, MABA, average of duplicates

| SMILES | Cytotoxicity in % inhibition at 50 μg mL^−1 (RAW 264.7 cells) [%] | MIC [1, 2] [µM] | other results |
| --- | --- | --- | --- |
| Cc1ccc2c(c1)C=CC1(CCc3c(nnn3-c3ccccc3)C1)O2 (centres unmarked) [Compound 7a, 6′-Methyl-1-phenyl-1,4,6,7-tetrahydrospiro[benzo[d][1,2,3]triazole-5,2′-chromene]] | 30.23 | 4.74 (≈ 1.56 µg/mL) | MIC [1, 3]: 1.56 µg |
| Cc1ccc(-n2nnc3c2CCC2(C=Cc4cc(C)ccc4O2)C3)cc1 (centres unmarked) [Compound 7b, 6′-Methyl-1-(p-tolyl)-1,4,6,7-tetrahydrospiro[benzo[d][1,2,3]triazole-5,2′-chromene]] |  |  | MIC [1, 4]: 75.8 µM (≈ 26 µg/mL) |
| Cc1ccc2c(c1)C=CC1(CCc3c(nnn3-c3ccc(Cl)cc3)C1)O2 (centres unmarked) [Compound 7c, 1-(4-Chlorophenyl)-6′-methyl-1,4,6,7-tetrahydrospiro[benzo[d][1,2,3]triazole-5,2′-chromene]] |  | 34.4 (≈ 12.5 µg/mL) |  |
| COc1ccc(-n2nnc3c2CCC2(C=Cc4cc(C)ccc4O2)C3)cc1 (centres unmarked) [Compound 7d, 1-(4-Methoxyphenyl)-6′-methyl-1,4,6,7-tetrahydrospiro[benzo[d][1,2,3]triazole-5,2′-chromene]] | 33.14 | 4.34 (≈ 1.56 µg/mL) | MIC [1, 3]: 1.56 µg |
| Cc1ccc2c(c1)C=CC1(CCc3c(nnn3Cc3ccccc3)C1)O2 (centres unmarked) [Compound 7e, 1-Benzyl-6′-methyl-1,4,6,7-tetrahydrospiro[benzo[d][1,2,3]triazole-5,2′-chromene]] |  |  | MIC [1, 4]: 75.8 µM (≈ 26 µg/mL) |
| Clc1ccc2c(c1)C=CC1(CCc3c(nnn3-c3ccccc3)C1)O2 (centres unmarked) [Compound 7f, 6′-Chloro-1-phenyl-1,4,6,7-tetrahydrospiro[benzo[d][1,2,3]triazole-5,2′-chromene]] | 21.41 | 17.9 (≈ 6.26 µg/mL) |  |
| Cc1ccc(-n2nnc3c2CCC2(C=Cc4cc(Cl)ccc4O2)C3)cc1 (centres unmarked) [Compound 7g, 6′-Chloro-1-(p-tolyl)-1,4,6,7-tetrahydrospiro[benzo[d][1,2,3]triazole-5,2′-chromene]] |  | 68.9 (≈ 25.1 µg/mL) |  |
| Clc1ccc(-n2nnc3c2CCC2(C=Cc4cc(Cl)ccc4O2)C3)cc1 (centres unmarked) [Compound 7h, 6′-Chloro-1-(4-chlorophenyl)-1,4,6,7-tetrahydrospiro[benzo[d][1,2,3]triazole-5,2′-chromene]] |  | 65.3 (≈ 25.1 µg/mL) |  |
| COc1ccc(-n2nnc3c2CCC2(C=Cc4cc(Cl)ccc4O2)C3)cc1 (centres unmarked) [Compound 7i, 6′-Chloro-1-(4-methoxyphenyl)-1,4,6,7-tetrahydrospiro[benzo[d][1,2,3]triazole-5,2′-chromene]] | 29.36 | 4.11 (≈ 1.56 µg/mL) | MIC [1, 3]: 1.56 µg |
| Clc1ccc2c(c1)C=CC1(CCc3c(nnn3Cc3ccccc3)C1)O2 (centres unmarked) [Compound 7j, 1-Benzyl-6′-chloro-1,4,6,7-tetrahydrospiro[benzo[d][1,2,3]triazole-5,2′-chromene]] |  | 34.4 (≈ 12.5 µg/mL) |  |
| Cc1cc2c(cc1Cl)C=CC1(CCc3c(nnn3-c3ccccc3)C1)O2 (centres unmarked) [Compound 7k, 6′-Chloro-7′-methyl-1-phenyl-1,4,6,7-tetrahydrospiro[benzo[d][1,2,3]triazole-5,2′-chromene]] | 24.90 | 8.6 (≈ 3.13 µg/mL) | MIC [1, 5]: 8.60 µM (≈ 3.13 µg/mL) |
| Cc1ccc(-n2nnc3c2CCC2(C=Cc4cc(Cl)c(C)cc4O2)C3)cc1 (centres unmarked) [Compound 7l, 6′-Chloro-7′-methyl-1-(p-tolyl)-1,4,6,7-tetrahydrospiro[benzo[d][1,2,3]triazole-5,2′-chromene]] |  |  | MIC [1, 4]: 69 µM (≈ 26.1 µg/mL) |
| Cc1cc2c(cc1Cl)C=CC1(CCc3c(nnn3-c3ccc(Cl)cc3)C1)O2 (centres unmarked) [Compound 7m, 6′-Chloro-1-(4-chlorophenyl)-7′-methyl-1,4,6,7-tetrahydrospiro[benzo[d][1,2,3]triazole-5,2′-chromene]] | 24.76 | 7.67 (≈ 3.05 µg/mL) | MIC [1, 5]: 7.87 µM (≈ 3.13 µg/mL) |
| COc1ccc(-n2nnc3c2CCC2(C=Cc4cc(Cl)c(C)cc4O2)C3)cc1 (centres unmarked) [Compound 7n, 6′-Chloro-1-(4-methoxyphenyl)-7′-methyl-1,4,6,7-tetrahydrospiro[benzo[d][1,2,3]triazole-5,2′-chromene]] | 22.64 | 15.9 (≈ 6.26 µg/mL) |  |
| Cc1cc2c(cc1Cl)C=CC1(CCc3c(nnn3Cc3ccccc3)C1)O2 (centres unmarked) [Compound 7o, 1-Benzyl-6′-chloro-7′-methyl-1,4,6,7-tetrahydrospiro[benzo[d][1,2,3]triazole-5,2′-chromene]] |  | 66.3 (≈ 25.1 µg/mL) |  |
| CC[C@@H](CO)NCCN[C@@H](CC)CO [Ethambutol, reference compound] |  | 7.64 (≈ 1.56 µg/mL) |  |
| NNC(=O)c1ccncc1 [Isoniazid, reference compound] |  | 0.437 (≈ 0.0599 µg/mL) |  |
| CO[C@H]1/C=C/O[C@@]2(C)Oc3c(C)c(O)c4c(O)c(c(/C=N/N5CCN(C)CC5)c(O)c4c3C2=O)NC(=O)/C(C)=C\C=C\[C@H](C)[C@H](O)[C@@H](C)[C@@H](O)[C@@H](C)[C@H](OC(C)=O)[C@@H]1C [Rifampicin, reference compound] |  | 0.5 (≈ 0.411 µg/mL) | MIC [1, 5]: 0.50 µM (≈ 0.411 µg/mL) |
| NC(=O)c1cnccn1 [pyrazinamide, reference compound] |  | 50.8 (≈ 6.25 µg/mL) |  |
